According to patent publication US7776847B2, “Benzisothiazoles useful for treating or preventing HCV infection” (priority 2005, dated 2010):
pIC50: −log10 of the molar value.

These molecules were tested on HCV replicon (assay: HCV replicon luciferase reporter assay). Conditions: Hepatitis C virus, Table 5; read-out: IC50.
Type: cell-based
Method in brief: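 IC50 is the compound amount halving luciferase signal, measured after 24–48 h treatment at various concentrations. Cells carrying the HCV replicon were pre-incubated 24 h at 37° C, 5% CO2 after seeding at about 5,000–7,500 cells/well before dosing.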
Molecule `O=C(Cc1c[nH]c2ccccc12)NCCNc1nsc2ccccc12` [Entry 82, N-(2-(Benzo[d]isothiazol-3-ylamino)ethyl)-2-(1H-indol-3-yl)acetamide] has a pIC50 of less than 5.30. For `COc1cccc(S(=O)(=O)NCCCNc2nsc3ccccc23)c1` [Entry 220, N-(3-(benzo[d]isothiazol-3-ylamino)propyl)-3-methoxybenzenesulfonamide], the pIC50 was greater than 5.30. For `O=S(=O)(NCCCNc1nsc2ccccc12)c1cc(F)c(Br)cc1F` [Entry 221, N-(3-(benzo[d]isothiazol-3-ylamino)propyl)-4-bromo-2,5-difluorobenzenesulfonamide], the pIC50 was greater than 5.30. Molecule `O=S(=O)(NCCCNc1nsc2ccccc12)c1ccc(Br)s1` [Entry 222, N-(3-(benzo[d]isothiazol-3-ylamino)propyl)-5-bromothiophene-2-sulfonamide] has a pIC50 greater than 5.30. Molecule `O=S(=O)(NCCCNc1nsc2ccccc12)c1ccc(Oc2ccc(Cl)cc2)cc1` [Entry 223, N-(3-(benzo[d]isothiazol-3-ylamino)propyl)-4-(4-chlorophenoxy)benzenesulfonamide] has a pIC50 greater than 5.30. With `N#Cc1ccc(NCCCNc2nsc3ccccc23)nc1` [Entry 224, 6-(3-(benzo[d]isothiazol-3-ylamino)propylamino)pyridine-3-carbonitrile] the pIC50 was greater than 5.30. In the case of `COC(=O)c1cnc(NCCCNc2nsc3ccccc23)nc1C(F)(F)F` [Entry 225, methyl 2-(3-(benzo[d]isothiazol-3-ylamino)propylamino)-4-(trifluoromethyl)pyrimidine-5-carboxylate], the pIC50 was greater than 5.30. `Clc1ccc(NCCCNc2nsc3ccccc23)nc1` [Entry 226, N-(3-(5-chloropyridin-2-ylamino)propyl)benzo[d]isothiazol-3-amine] showed a pIC50 greater than 5.30. `Cc1ccnc(NCCCNc2nsc3ccccc23)c1` [Entry 227, N-(3-(4-methylpyridin-2-ylamino)propyl)benzo[d]isothiazol-3-amine] showed a pIC50 greater than 5.30. Work on `FC(F)(F)c1ccc(NCCCNc2nsc3ccccc23)nc1` [Entry 228, N-(3-(5-(trifluoromethyl)pyridin-2-ylamino)propyl)benzo[d]isothiazol-3-amine] yielded a pIC50 greater than 5.30. In the case of `N#Cc1ccnc(NCCCNc2nsc3ccccc23)c1` [Entry 229, 2-(3-(benzo[d]isothiazol-3-ylamino)propylamino)pyridine-4-carbonitrile], the pIC50 was greater than 5.30. `Clc1cccc(NCCCNc2nsc3ccccc23)n1` [Entry 230, N^1-(benzo[d]isothiazol-3-yl)-N^3-(6-chloropyridin-2-yl)propane-1,3-diamine] showed a pIC50 greater than 5.30. In the case of `FC(F)(F)c1ccnc(NCCCNc2nsc3ccccc23)c1` [Entry 231, N^1-(benzo[d]isothiazol-3-yl)-N^3-(4-(trifluoromethyl)pyridin-2-yl)propane-1,3-diamine], the pIC50 was greater than 5.30. Molecule `O=C(NCCCNc1nsc2ccccc12)c1cccc(OCC(O)CN2CCOCC2)c1` (stereo not shown) [Entry 232, N-(3-(benzo[d]isothiazol-3-ylamino)propyl)-3-(2-hydroxy-3-morpholinopropoxy)benzamide] has a pIC50 greater than 5.30. For `COc1cccc(N2CCN(CC(O)COc3cccc(C(=O)NCCCNc4nsc5ccccc45)c3)CC2)c1` (stereo not shown) [Entry 233, N-(3-(benzo[d]isothiazol-3-ylamino)propyl)-3-(2-hydroxy-3-(4-(3-methoxyphenyl)piperazin-1-yl)propoxy)benzamide], the pIC50 was greater than 5.30. For `O=C(NCCCNc1nsc2ccccc12)c1ccc(F)cc1` [Entry 234, N-(3-(benzo[d]isothiazol-3-ylamino)propyl)-4-fluorobenzamide], the pIC50 was greater than 5.30. With `O=C(NCCCNc1nsc2ccccc12)c1ccc(OCc2ccncc2)cc1` [Entry 235, N-(3-(benzo[d]isothiazol-3-ylamino)propyl)-4-(pyridin-4-ylmethoxy)benzamide] the pIC50 was greater than 5.30. In the case of `COc1cccc(COc2ccc(C(=O)NCCCNc3nsc4ccccc34)cc2)c1` [Entry 236, N-(3-(benzo[d]isothiazol-3-ylamino)propyl)-4-(3-methoxybenzyloxy)benzamide], the pIC50 was greater than 5.30. For `COc1ccc(COc2ccc(C(=O)NCCCNc3nsc4ccccc34)cc2)cc1OC` [Entry 237, N-(3-(benzo[d]isothiazol-3-ylamino)propyl)-4-(3,4-dimethoxybenzyloxy)benzamide], the pIC50 was greater than 5.30. In the case of `O=C(O)COc1ccc(C(=O)NCCCNc2nsc3ccccc23)cc1` [Entry 238, 2-(4-(3-(benzo[d]isothiazol-3-ylamino)propylcarbamoyl)phenoxy) acetic acid], the pIC50 was less than 5.30. `CN(CCCNc1nsc2ccccc12)S(=O)(=O)c1ccccc1C(F)(F)F` [Entry 240, N-(3-(benzo[d]isothiazol-3-ylamino)propyl)-N-methyl-2-(trifluoromethyl)benzenesulfonamide] showed a pIC50 greater than 5.30. `COc1ccc(-c2ccc(CNCCCNc3nsc4nccnc34)cc2)cc1` [Entry 241, N^1-(isothiazolo[5,4-b]pyrazin-3-yl)-N^3-((4′-methoxybiphenyl-4-yl)methyl)propane-1,3-diamine] was tested, and the pIC50 was greater than 5.30.
